# From patent US8962627B2, “Oxime derivatives and their use as allosteric modulators of metabotropic glutamate receptors” (Prestwick Chemical, Inc., priority 2009, dated 2015)
# Tests used:
# [1] = biological target: T1, human mGluR4 transiently over-expressed in HEK-293 cells (Homo sapiens, UniProt Q14833); experiment: Human mGluR4 positive allosteric modulator evaluation using Ca++ functional assay; format: cell-based; conditions: HEK-293 cells co-transfected with hmGluR4 and chimeric G protein; EC10 glutamate; intracellular calcium (Fluo4AM); read-out: mean EC50 of agonist/positive allosteric modulator activity on mGluR4
# T1 construct: expressed in transfected cells; host or cells: HEK-293 cells, transient co-transfection by electroporation
# T1 sequence (Q14833 33-912): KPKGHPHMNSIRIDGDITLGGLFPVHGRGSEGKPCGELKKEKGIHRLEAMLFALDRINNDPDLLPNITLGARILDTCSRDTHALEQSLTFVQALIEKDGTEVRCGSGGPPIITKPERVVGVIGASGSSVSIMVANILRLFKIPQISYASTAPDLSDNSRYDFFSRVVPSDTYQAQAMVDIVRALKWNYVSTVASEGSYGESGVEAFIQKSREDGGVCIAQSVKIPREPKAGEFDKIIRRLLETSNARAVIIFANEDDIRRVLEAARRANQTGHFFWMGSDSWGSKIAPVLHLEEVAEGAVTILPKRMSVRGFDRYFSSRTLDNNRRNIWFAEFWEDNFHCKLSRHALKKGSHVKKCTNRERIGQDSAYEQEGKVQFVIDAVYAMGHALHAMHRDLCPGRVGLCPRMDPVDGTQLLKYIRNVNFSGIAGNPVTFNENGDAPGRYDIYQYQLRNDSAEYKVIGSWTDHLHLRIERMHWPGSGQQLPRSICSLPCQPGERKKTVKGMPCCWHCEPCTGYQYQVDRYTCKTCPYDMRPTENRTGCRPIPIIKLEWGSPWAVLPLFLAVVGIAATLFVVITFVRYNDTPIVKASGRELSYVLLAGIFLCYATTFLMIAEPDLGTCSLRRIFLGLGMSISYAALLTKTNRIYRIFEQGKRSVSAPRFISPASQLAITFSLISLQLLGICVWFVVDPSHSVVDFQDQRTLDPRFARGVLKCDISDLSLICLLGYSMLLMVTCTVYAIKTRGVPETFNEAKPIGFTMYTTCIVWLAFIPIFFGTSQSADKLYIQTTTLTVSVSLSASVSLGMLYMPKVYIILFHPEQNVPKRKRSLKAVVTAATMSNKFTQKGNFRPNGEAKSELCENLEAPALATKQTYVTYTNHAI
# In short: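 Fluo4AM-loaded HEK-293 cells expressing hmGluR4 plus a chimeric G protein were read for intracellular Ca2+ (ex 485, em 525 nm). PAM effect measured as potentiation of EC10 glutamate after a 60 s compound-alone agonist read; EC50 from variable-slope sigmoidal fits of 6–9 doses, duplicates, twice.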
# mice = experiment: Marble burying test in the mouse; format: in vivo; conditions: p<0.001
# From the text: In-Vivo Evaluation in the Marble Burying Test in the Mouse
# The method, which detects anxiolytic/tranquilizing activity, follows that described by Broekkamp at al. (Eur. J. Pharmacol., 126, 223-229, 1986). Mice exposed to novel object (marbles) will bury them in the sawdust floor covering. Anxiolytics decrease the number of marbles buried at non-sedative doses.
# Mice were individually placed in transparent plastic cages (33×21×18 cm) with 5 cm of sawdust on the floor and 25 marbles grouped in the centre of the cage. The cage was covered with an inverted plastic cage. Each test cage, together with the marbles, was impregnated with mouse odor before-hand by leaving 10 mice in the cage for 15 minutes. These mice then played no further role in the experiment. The number of marbles covered by sawdust (⅔ or more) was counted at the end of a 30 minute test. 12 mice were studied per group. The test was performed blind (apart from positive control). The compound of Example 85 was evaluated at 2 doses (100 and 300 mg/kg), administered p.o. 30 minutes before the test, and compared with vehicle control groups. Clobazam (8 mg/kg i.p.), administered 30 minutes before the test, was used as reference substance and was compared with the vehicle control group. Data were analyzed by comparing treated groups with control group using unpaired Student's t tests.
SMILES,EC50 [1],melting point,"decrease of the number of marbles covered by sawdust, as compared with vehicle controls (mice; 100 mg/kg p.o. 30 minutes before the test)","decrease of the number of marbles covered by sawdust, as compared with vehicle controls (mice; 300 mg/kg p.o. 30 minutes before the test)"
"Cl.ON=c1cc(-c2cc3cccn3cn2)oc2ccc(OCCN3CCOCC3)cc12 [Example 85, 6-(3-Morpholin-4-yl-ethoxy)-2-pyrrolo[1,2-c]pyrimidin-3-yl-chromen-4-one oxime hydrochloride]",< 1 µM,–,−70%,−83%
"COc1ccc2oc(-c3cc4ccccc4cn3)cc(=NO)c2c1 (mixture of isomers) [Example 42, 2-isoquinolin-3-yl-6-methoxy-chromen-4-one oxime]",< 5 µM,250 to 255 °C,–,–
"ON=c1cc(-c2cc3ccccc3cn2)oc2ccccc12 (mixture of isomers) [Example 1, 2-isoquinolin-3-yl-chromen-4-one oxime]",< 1 µM,247 to 249 °C,–,–
"CN1CCCN(CCOc2ccc3oc(-c4cc5cccn5cn4)cc(=NO)c3c2)CC1.Cl.Cl [Example 94, 6-[2-(4-methyl-[1,4]diazepan-1-yl)-ethoxy]-2-pyrrolo[1,2-c]pyrimidin-3-yl-chromen-4-one oxime, dihydrochloride]",< 1 µM,> 210 °C (dec.),–,–
"COC[C@H]1CCCN1CCOc1ccc2oc(-c3cc4cccn4cn3)cc(=NO)c2c1.Cl [Example 97, 6-[2-((R)-2-methoxymethylpyrrolidin-1-yl)-ethoxy]-2-pyrrolo[1,2-c]pyrimidin-3-yl-chromen-4-one oxime, hydrochloride]",< 1 µM,210 °C (dec.),–,–
"COCCOc1ccc2c(=NO)cc(-c3cc4ccccc4cn3)oc2c1 (mixture of isomers) [Example 57, 2-isoquinolin-3-yl-7-(2-methoxy-ethoxy)-chromes-4-one oxime]",< 5 µM,223 to 225 °C,–,–
"C=Cc1ccc2oc(-c3cc4ccccc4cn3)cc(=NO)c2c1 [Example 36, 2-isoquinolin-3-yl-6-(vinyl)-chromen-4-one oxime]",< 5 µM,198 to 200 °C,–,–
"COc1cccc(C#Cc2ccc3c(=NO)cc(-c4cc5ccccc5cn4)oc3c2)c1 (mixture of isomers) [Example 28, 2-isoquinolin-3-yl-7-(3-methoxyphenyl)ethynyl-chromen-4-one oxime]",< 1 µM,248 to 251 °C,–,–
"CN(C)CCOc1ccc2oc(-c3cc4ccccc4cn3)cc(=NO)c2c1 (mixture of isomers) [Example 44, 6-(2-dimethylamino-ethoxy)-2-isoquinolin-3-yl-chromen-4-one oxime]",< 5 µM,203 to 205 °C,–,–
"ON=c1cc(-c2cc3sccc3cn2)oc2ccccc12 [Example 70, 2-Thieno[3,2-c]pyridin-6-yl-chromen-4-one oxime]",< 1 µM,272 to 275 °C,–,–
"ON=c1cc(-c2cc3ccccc3cn2)oc2cc(/C=C/c3ccccc3)ccc12 (mixture of isomers) [Example 21, 2-isoquinolin-3-yl-7-((E)-styryl)-chromen-4-one oxime]",< 5 µM,273 to 276 °C,–,–
"Cl.OC[C@@H]1CCCN1CCOc1ccc2oc(-c3cc4cccn4cn3)cc(=NO)c2c1 [Example 95, 6-[2-((S)-2-hydroxymethylpyrrolidin-1-yl)-ethoxy]-2-pyrrolo[1,2-c]pyrimidin-3-yl-chromen-4-one oxime, hydrochloride]",< 5 µM,> 220 °C (dec.),–,–
"COC[C@@H]1CCCN1CCOc1ccc2oc(-c3cc4cccn4cn3)cc(=NO)c2c1.Cl [Example 96, 6-[2-((S)-2-methoxymethylpyrrolidin-1-yl)-ethoxy]-2-pyrrolo[1,2-c]pyrimidin-3-yl-chromen-4-one oxime, hydrochloride]",< 1 µM,> 225 °C (dec.),–,–
"Cl.ON=c1cc(-c2cc3cccn3cn2)oc2ccc(OCCN3CCCOCC3)cc12 [Example 117, 6-(2-[1,4]oxazepan-4-yl-ethoxy)-2-pyrrolo[1,2-c]pyrimidin-3-yl-chromen-4-one oxime, hydrochloride]",< 1 µM,240 °C (dec.),–,–
"ON=c1cc(-c2cc3cc(Br)cn3cn2)oc2ccccc12 [Example 65, 2-(6-bromo-Pyrrolo[1,2-c]pyrimidin-3-yl)-chromen-4-one oxime]",< 5 µM,244 to 245 °C,–,–
"COCCOc1cccc(C#Cc2ccc3c(=NO)cc(-c4cc5ccccc5cn4)oc3c2)c1 (mixture of isomers) [Example 53, 2-Isoquinolin-3-yl-7-[3-(2-methoxy-ethoxy)-phenylethynyl]-chromen-4-one oxime]",< 1 µM,155 to 160 °C,–,–
"Cl.ON=c1cc(-c2cc3cccn3cn2)oc2ccc(OCCN3CCC(O)C3)cc12 (stereo not drawn) [Example 98, 6-[2-(3-hydroxy-pyrrolidin-1-yl)-ethoxy]-2-pyrrolo[1,2-c]pyrimidin-3-yl-chromen-4-one oxime, hydrochloride]",< 1 µM,> 230 °C (dec.),–,–

# More lines, main results first:
EC50 [1],melting point,SMILES,"decrease of the number of marbles covered by sawdust, as compared with vehicle controls (mice; 100 mg/kg p.o. 30 minutes before the test)","decrease of the number of marbles covered by sawdust, as compared with vehicle controls (mice; 300 mg/kg p.o. 30 minutes before the test)"
< 1 µM,210 to 215 °C,"ON=c1cc(-c2cc3cccn3cn2)oc2ccc(OCCOc3ccccc3)cc12 [Example 160, 6-(2-Phenoxy-ethoxy)-2-pyrrolo[1,2-c]pyrimidin-3-yl-chromen-4-one oxime]",–,–
< 1 µM,210 °C,"ON=c1cc(-c2cc3cccn3cn2)oc2ccc(OCCc3ccccc3)cc12 [Example 146, 6-Phenethyloxy-2-pyrrolo[1,2-c]pyrimidin-3-yl-chromen-4-one oxime]",–,–
< 1 µM,222 to 225 °C,"CC1CN(CCOc2ccc3oc(-c4cc5sccc5cn4)cc(=NO)c3c2)CC(C)O1.Cl (stereo not drawn) [Example 132, 6-[2-(2,6-Dimethyl-morpholin-4-yl)-ethoxy]-2-thieno[3,2-c]pyridin-6-yl-chromen-4-one oxime, hydrochloride]",–,–
< 1 µM,> 250 °C (dec.),"Cl.ON=c1cc(-c2cc3sccc3cn2)oc2ccc(OCCN3CCCC(F)(F)C3)cc12 [Example 131, 6-[2-(3,3-Difluoro-piperidin-1-yl)-ethoxy]-2-thieno[3,2-c]pyridin-6-yl-chromen-4-one oxime, hydrochloride]",–,–
< 1 µM,236 to 238 °C,"Cl.ON=c1cc(-c2cc3sccc3cn2)oc2ccc(OCCCc3ccncc3)cc12 [Example 134, 6-(3-Pyridin-4-yl-propoxy)-2-thieno[3,2-c]pyridin-6-yl-chromen-4-one oxime, hydrochloride]",–,–
< 1 µM,205 to 207 °C,"ON=c1cc(-c2cc3cccn3cn2)oc2ccc(OCCc3cccc(F)c3)cc12 [Example 138, 6-[2-(3-Fluoro-phenyl)-ethoxy]-2-pyrrolo[1,2-c]pyrimidin-3-yl-chromen-4-one, oxime]",–,–
< 1 µM,252 to 254 °C,"Cl.ON=c1cc(-c2cc3sccc3cn2)oc2ccc(OCCCc3cccnc3)cc12 [Example 135, 6-(3-Pyridin-3-yl-propoxy)-2-thieno[3,2-c]pyridin-6-yl-chromen-4-one oxime, hydrochloride]",–,–
< 1 µM,> 210 °C (dec.),"Cl.Cl.ON=c1cc(-c2cc3cccn3cn2)oc2ccc(OCCN3CCC(N4CCCC4)CC3)cc12 [Example 118, 6-[2-(4-pyrrolidin-1-yl-piperidin-1-yl)-ethoxy]-2-pyrrolo[1,2-c]pyrimidin-3-yl-chromen-4-one oxime, dihydrochloride]",–,–
< 5 µM,> 270 °C (dec.),"Cl.ON=c1cc(-c2cc3cccn3cn2)oc2ccc(OCCc3ccncc3)cc12 [Example 136, 6-(2-Pyridin-4-yl-ethoxy)-2-pyrrolo[1,2-c]pyrimidin-3-yl-chromen-4-one oxime, hydrochloride]",–,–
< 1 µM,214 to 215 °C,"ON=c1cc(-c2cc3cccn3cn2)oc2ccc(OCCc3ccc(C(F)(F)F)cc3)cc12 [Example 137, 2-Pyrrolo[1,2-c]pyrimidin-3-yl-6-[2-(4-trifluoromethyl-phenyl)-ethoxy]-chromen-4-one, oxime]",–,–
< 1 µM,198 to 200 °C,"ON=c1cc(-c2cc3cccn3cn2)oc2ccc(OCCOc3ccncc3)cc12 [Example 147, 6-[2-(Pyridin-4-yloxy)-ethoxy]-2-pyrrolo[1,2-c]pyrimidin-3-yl-chromen-4-one oxime]",–,–
